In US10259810B2, “N-sulfonylated pyrazolo[3,4-b]pyridin-6-carboxamides and method of use” (AbbVie S.à.r.l., priority 2015, dated 2019):

Experiments:
ΔF508-CFTR [1] = target: T1, ΔF508-CFTR (Homo sapiens, UniProt P13569, DEL508-508); assay: CFTR cell surface levels using HRP-tagged ΔF508-CFTR expressing CFBE cells, in the presence of a co-corrector; format: cell-based; conditions: HRP-tagged ΔF508-CFTR CFBE cells, in the presence of 3 μM co-corrector; for EC50: read-out: EC50
T1 construct: host or cells: CFBE41o-, doxycycline-inducible
T1 sequence (P13569 with tags, fused parts or gaps DEL508-508): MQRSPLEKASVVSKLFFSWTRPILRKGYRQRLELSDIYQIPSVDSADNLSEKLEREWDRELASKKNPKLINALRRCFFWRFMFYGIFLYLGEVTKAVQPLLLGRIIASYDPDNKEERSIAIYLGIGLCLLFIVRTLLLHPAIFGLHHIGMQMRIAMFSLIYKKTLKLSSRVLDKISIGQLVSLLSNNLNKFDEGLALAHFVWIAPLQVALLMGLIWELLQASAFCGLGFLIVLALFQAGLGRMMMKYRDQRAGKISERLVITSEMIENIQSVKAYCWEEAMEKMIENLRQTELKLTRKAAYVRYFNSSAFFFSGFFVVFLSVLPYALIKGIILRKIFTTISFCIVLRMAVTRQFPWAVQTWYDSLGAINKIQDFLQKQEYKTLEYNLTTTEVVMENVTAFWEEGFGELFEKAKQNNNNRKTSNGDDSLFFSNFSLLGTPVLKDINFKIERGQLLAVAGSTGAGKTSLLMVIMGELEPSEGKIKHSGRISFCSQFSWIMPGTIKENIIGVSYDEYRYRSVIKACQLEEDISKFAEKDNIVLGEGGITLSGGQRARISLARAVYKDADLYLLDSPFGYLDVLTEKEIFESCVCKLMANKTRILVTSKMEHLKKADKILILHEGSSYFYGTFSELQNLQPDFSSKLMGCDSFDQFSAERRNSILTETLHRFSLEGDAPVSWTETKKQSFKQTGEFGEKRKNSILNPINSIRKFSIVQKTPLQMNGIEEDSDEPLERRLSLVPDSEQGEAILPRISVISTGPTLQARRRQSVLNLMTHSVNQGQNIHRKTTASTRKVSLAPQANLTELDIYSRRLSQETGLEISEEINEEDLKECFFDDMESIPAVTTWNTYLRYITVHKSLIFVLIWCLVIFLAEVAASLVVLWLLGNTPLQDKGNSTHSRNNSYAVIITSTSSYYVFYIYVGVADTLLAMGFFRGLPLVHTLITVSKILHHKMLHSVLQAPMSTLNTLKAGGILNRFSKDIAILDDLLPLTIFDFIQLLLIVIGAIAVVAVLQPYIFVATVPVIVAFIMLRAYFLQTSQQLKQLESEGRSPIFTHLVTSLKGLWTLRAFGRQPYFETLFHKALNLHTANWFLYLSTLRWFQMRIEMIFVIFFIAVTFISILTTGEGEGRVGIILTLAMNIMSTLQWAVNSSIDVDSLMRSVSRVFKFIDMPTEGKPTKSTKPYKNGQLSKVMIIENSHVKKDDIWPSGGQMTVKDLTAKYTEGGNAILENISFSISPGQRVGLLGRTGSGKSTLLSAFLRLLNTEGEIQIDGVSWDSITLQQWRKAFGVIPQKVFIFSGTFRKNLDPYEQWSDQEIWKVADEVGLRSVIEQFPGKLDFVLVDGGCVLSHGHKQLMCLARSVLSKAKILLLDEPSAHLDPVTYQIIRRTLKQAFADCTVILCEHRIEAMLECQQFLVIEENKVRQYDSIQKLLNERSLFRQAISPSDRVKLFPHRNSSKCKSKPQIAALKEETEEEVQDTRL
In short: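 Chemiluminescent read-out of surface HRP (15 min, dark) after PBS washes. Activity is normalized as 100×(sample−DMSO)/(3 μM co-corrector alone−DMSO).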

ΔF508-CFTR [2] = target: T1, ΔF508-CFTR; assay: CFTR cell surface levels using HRP-tagged ΔF508-CFTR expressing CFBE cells, intrinsic corrector capacity; format: cell-based; set-up: % Activation: concentration or dose not given beside the values; conditions: HRP-tagged ΔF508-CFTR expressing CFBE41o- cells, compound alone (intrinsic corrector capacity), 20 hours at 33° C.; for EC50: read-out: EC50
In short: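 Read-out: chemiluminescent HRP activity of ECL4-HRP-tagged ΔF508-CFTR at the cell surface, 15 min substrate in dark. Normalized as 100×(sample−DMSO)/(positive control−DMSO).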

SMILES	% Activation (ΔF508-CFTR [1]) [%]	EC50 (ΔF508-CFTR [1]) [nM]	% Activation (ΔF508-CFTR [2]) [%]	EC50 (ΔF508-CFTR [2]) [nM]
CC(C)c1nn(-c2cccc(N3CCC3)c2)c2nc(C(=O)NS(C)(=O)=O)cc(-c3ccc(N4CCOCC4)cc3)c12 [Compound 10, 1-[3-(azetidin-1-yl)phenyl]-N-(methanesulfonyl)-4-[4-(morpholin-4-yl)phenyl]-3-(propan-2-yl)-1H-pyrazolo[3,4-b]pyridine-6-carboxamide]	606.5	443	418.25	572
CC(C)c1nn(C2CCCCC2)c2nc(C(=O)NS(C)(=O)=O)cc(-c3cnc(N4CCOCC4)nc3)c12 [Compound 11, 1-cyclohexyl-N-(methanesulfonyl)-4-[2-(morpholin-4-yl)pyrimidin-5-yl]-3-(propan-2-yl)-1H-pyrazolo[3,4-b]pyridine-6-carboxamide]	381.33	455	164.7	557
Cc1nn(-c2ccccc2)c2nc(C(=O)NS(C)(=O)=O)cc(N3CCCCC3)c12 [Compound 13, N-(methanesulfonyl)-3-methyl-1-phenyl-4-(piperidin-1-yl)-1H-pyrazolo[3,4-b]pyridine-6-carboxamide]	341.75	1470	153.85	2360
CS(=O)(=O)NC(=O)c1cc(-c2ccc(N3CCC(C#N)CC3)nc2)c2c(C3CCC3)nn(C3CCCCC3)c2n1 [Compound 104, 4-[6-(4-cyanopiperidin-1-yl)pyridin-3-yl]-3-cyclobutyl-1-cyclohexyl-N-(methanesulfonyl)-1H-pyrazolo[3,4-b]pyridine-6-carboxamide]	411.33	344	239.6	497
